Measured values: patent US20240197800A1, “Aristotelia chilensis EXTRACTS FOR TREATING FUNGAL INFECTIONS” (Phytonet Doo Beograd-rakovica, priority 2021, published 2024)

What was measured:
[1] = tested on: candida, three clinical isolates; assay: inhibition of candida filamentation in vitro, checkerboard assay with nystatin in RPMI medium; type: cell-based, Candida albicans
Method: The inhibitory effect of Maqui berry extract and nystatin, one of the most commonly applied topical antifungal drugs, on candida filamentation was investigated in vitro in three clinical isolates in RPMI medium in a checkerboard assay. The extract was tested in a concentration range of 0.125; 0.25 and 0.5 mg/mL (31.25; 62.5 and 125 μg/mL delphinidin, respectively 43.75; 87.5 and 175 μg/mL total anthocyanins), and nystatin in the concentration range 2 μg/mL (MIK), 1 μg/mL (½MIK) and 0.5 μg/mL (¼MIK).

Candida albicans SC5314 = assay: zebrafish embryo hindbrain infection model, inhibition of candida filamentation in vivo; parameters: species or system Candida albicans (host: zebrafish embryo)
Method: The model of the brain infection (hindbrain) of the zebrafish embryo with Candida albicans, described in the literature, is an animal model of the infection system which due to the optical transparency of the embryo body provides the ability to examine and monitor the effect of applied therapeutics on replication, filamentation and fungi dissemination through the body of the zebrafish embryo as a host. The embryos at the developmental stage of 32-34 hpf were injected into the brain through an optic vesicle with 50-75 Candida albicans SC5314 cells, previously labeled with green fluorescent dye. Candida inoculum was prepared in 5% polyvinylpyrrolidone (PVP) solution. Two hours after the microinjection of candida, the infected embryos were treated with Maqui berry extract at a concentration of 0.0625 mg/mL, 0.125 mg/mL and 0.25 mg/mL, as well as nystatin at a concentration of 1 μg/mL (½MIK) and 0.5 μg/mL (¼MIK). Beside individual treatments, the infected embryos were exposed to a combined treatment (nystatin and extract together), in combinations of all mentioned doses. The embryos injected with only 5% PVP represented the control group. After the applied treatments, the zebrafish embryos were reared for the next 4 days at a temperature of 31° C. and monitored daily for survival as well as filamentation and dissemination of candida using fluorescence microscopy.

[2] = nystatin alone, MIK dose (2 μg/mL)

## C[C@@H]1[C@H](O)[C@@H](C)/C=C/C=C/CC/C=C/C=C/C=C/C=C/C(O[C@H]2O[C@H](C)[C@@H](O)[C@H](N)[C@@H]2O)CC2O[C@](O)(CC(O)C(O)CCC(O)CC(O)CC(O)CC(=O)O[C@H]1C)CC(O)C2C(=O)O (stereo partly drawn) [nystatin]
[1]; clinical isolates, RPMI medium
  MIK: 2 µg/mL
[1]; [2]
  filamentation: no filamentation
  growth of isolates: reduced growth
[1]; nystatin alone, ½MIK (1 μg/mL) and ¼MIK (0.5 μg/mL) doses
  growth and filamentation: grew and filamented
Candida albicans SC5314; both nystatin concentrations (0.5 and 1 μg/mL)
  filamentation in vivo: filamentation was present
Candida albicans SC5314; nystatin 0.5 μg/mL (¼MIK) and 1 μg/mL (½MIK)
  infection (candidiasis) compared to untreated embryos: significantly reduced
